The source of these data is patent publication US12091402B2 (Avilar Therapeutics, Inc., priority 2021, dated 2024).

SMILES strings stand for the structures. Read-outs that look alike come from different tables or passages of the source. Where a SMILES comes first, the peptide text is derived from it. Bridges are numbered along the chain shown (N, C = ends). [ ]: non-standard residue; d: D form. Pro(4S-NH2) = N[C@@H]1CN[C@H](C(=O)O)C1; hSer = N[C@@H](CCO)C(=O)O

The target of experiment [1] is IgG. Nature of the experiment: Affinity to IgG by surface plasmon resonance (SPR). It is filed as binding. The method, then: Immobilization levels ranging from 1000-1300 resonance units (RU) are obtained. The running buffer is 10 mM HEPES, pH 7.4, 400 mM NaCl, 0.005% P20, […].
For orientation: SPR reads the build-up and loss of mass on a sensor chip optically.

Experiment [2] concerns the target T1, ASGPR (Homo sapiens, UniProt P07306).
T1 sequence (P07306 1-291): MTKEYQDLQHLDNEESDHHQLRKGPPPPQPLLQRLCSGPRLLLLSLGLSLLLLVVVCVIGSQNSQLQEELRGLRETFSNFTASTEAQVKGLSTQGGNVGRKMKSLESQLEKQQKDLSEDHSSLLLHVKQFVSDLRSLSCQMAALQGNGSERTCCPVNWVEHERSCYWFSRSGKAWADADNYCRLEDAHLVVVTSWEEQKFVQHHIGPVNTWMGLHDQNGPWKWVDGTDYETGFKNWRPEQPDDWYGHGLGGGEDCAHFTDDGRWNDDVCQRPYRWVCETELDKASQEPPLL
Briefly: Affinity to ASGPR by surface plasmon resonance (SPR).
Protocol: Biotinylated ASGPR (20 μg/ml) was immobilized on SA sensor chips (GE Healthcare) at flow rate of 5 μl/min for 90 sec reaching an immobilization level ranging from 500-3000 resonance units (RU). The running buffer was 50 mM HEPES, pH7.5, 150 mM NaCl, 50 mM CaCl2), 0.01% P20, 3% DMSO. The concentration of compounds vary from 2 mM to 5 nM depending on Kd values. The compounds are diluted 2 or 3-fold with 8 concentration points. Solutions containing serially diluted compounds are injected at a flow rate of 40 μL/min for 150-300 sec followed by a 90-300 sec dissociation phase for each concentration. The surface was regenerated using 50 mM HEPES, pH 7.5, 150 mM NaCl, 5 mM EDTA, 0.01% P20, 3% DMSO.
Data was processed using the analysis software in Biacore 8K to perform background subtraction, double referencing, and solvent correction. Values of affinity expressed as the dissociation constants (Kd) were determined by fitting the steady state binding responses (RUs) as a function of the concentration ([Compound]) using the following equation: RU=RUmax/(KD+[Compound]), where RU max is the calculated maximal response. Where appropriate double-referenced data were fit to using a 1:1 binding model for kinetic analysis.

[3] abbreviates: Biacore 8K, 25° C., IgG on CM5 chip, read-out: IgG SPR Binding Kd.

As usually defined, the Kd is the constant that tells how readily two partners part at equilibrium. Consider `C#CCCCC(=O)NCCOCCOCCOCCOCCN[C@@H](CC(=O)O)C(=O)N[C@H]1CSSC[C@@H](C(=O)N[C@H](C(N)=O)[C@@H](C)O)NC(=O)[C@H](Cc2c[nH]c3ccccc23)NC(=O)[C@H](C(C)C)NC(=O)[C@H](CC(C)C)NC(=O)[C@H](CCC(=O)O)NC(=O)CNC(=O)[C@H](CC(C)C)NC(=O)[C@H](Cc2cnc[nH]2)NC(=O)[C@H](Cc2c[nH]c3ccccc23)NC(=O)[C@H](C)NC1=O` [Intermediate 3], for which, in experiment [1] (setting [3]), the Kd is less than 100 nM.

Regarding `CC(C)C[C@@H]1NC(=O)[C@H](C)NC(=O)CNC(=O)[C@H](CC(C)C)NC(=O)[C@H](Cc2cnc[nH]2)NC(=O)[C@H](Cc2c[nH]c3ccccc23)NC(=O)[C@H](C)NC(=O)[C@@H]2CSSC[C@H](NC(=O)[C@H](Cc3c[nH]c4ccccc34)NC(=O)[C@H](C(C)C)NC1=O)C(=O)N[C@@H]([C@@H](C)O)C(=O)N1CCC[C@@H]1C(=O)N1C[C@@H](N)C[C@H]1C(=O)N[C@@H](C)C(=O)N2` [Intermediate 25] (cyclo(ACAWHLGALVWCT[dP][Pro(4S-NH2)]); disulfide 2-12), the Kd was less than 100 nM in experiment [1] (setting [3]) and less than 100 nM in experiment [1] (SPR, read-out: IgG KD).

Turning to `C#CCCCC(=O)N[C@H]1C[C@H]2C(=O)N[C@@H](CC(=O)O)C(=O)N[C@H]3CSSC[C@H](NC(=O)[C@H](Cc4c[nH]c5ccccc45)NC(=O)[C@H](C(C)C)NC(=O)[C@H](CC(C)C)NC(=O)[C@H](CCC(=O)O)NC(=O)CNC(=O)[C@H](CC(C)C)NC(=O)[C@H](Cc4cnc[nH]4)NC(=O)[C@H](Cc4c[nH]c5ccccc45)NC(=O)[C@H](C)NC3=O)C(=O)N[C@@H]([C@@H](C)O)C(=O)N3CCC[C@@H]3C(=O)N2C1` [Intermediate 8], the Kd in experiment [1] (SPR, read-out: IgG KD) is less than 100 nM. Regarding `CC(C)C[C@@H]1NC(=O)[C@H](Cc2cnc[nH]2)NC(=O)[C@H](Cc2c[nH]c3ccccc23)NC(=O)[C@H](C)NC(=O)[C@@H]2CSSC[C@H](NC(=O)[C@H](Cc3c[nH]c4ccccc34)NC(=O)[C@H](C(C)C)NC(=O)[C@H](CC(C)C)NC(=O)[C@H](CCC(=O)N(C)C)NC(=O)CNC1=O)C(=O)N[C@@H]([C@@H](C)O)C(=O)N1CCC[C@@H]1C(=O)N1C[C@@H](N)C[C@H]1C(=O)N[C@@H](CC(=O)O)C(=O)N2` [Intermediate 23], the Kd in experiment [1] (setting [3]) was less than 100 nM; in experiment [1] (SPR, read-out: IgG KD), less than 100 nM. Turning to `CC(C)C[C@@H]1NC(=O)[C@H](Cc2cnc[nH]2)NC(=O)[C@H](Cc2c[nH]c3ccccc23)NC(=O)[C@H](C)NC(=O)[C@@H]2CSSC[C@H](NC(=O)[C@H](Cc3c[nH]c4ccccc34)NC(=O)[C@H](C(C)C)NC(=O)[C@H](CC(C)C)NC(=O)[C@H](CCC(=O)O)NC(=O)CNC1=O)C(=O)N[C@@H]([C@@H](C)O)C(=O)N1CCC[C@@H]1C(=O)N1C[C@@H](N)C[C@H]1C(=O)N[C@@H](CC(N)=O)C(=O)N2` [Intermediate 13] (cyclo(AWHLGELVWCT[dP][Pro(4S-NH2)]NC); disulfide 10-15), the Kd was less than 100 nM in experiment [1] (setting [3]) and less than 100 nM in experiment [1] (SPR, read-out: IgG KD).

Consider `CC(C)C[C@@H]1NC(=O)[C@H](Cc2cnc[nH]2)NC(=O)[C@H](Cc2c[nH]c3ccccc23)NC(=O)[C@H](C)NC(=O)[C@@H]2CSSC[C@H](NC(=O)[C@H](Cc3c[nH]c4ccccc34)NC(=O)[C@H](C(C)C)NC(=O)[C@H](CC(C)C)NC(=O)[C@H](CCC(N)=O)NC(=O)CNC1=O)C(=O)N[C@@H]([C@@H](C)O)C(=O)N1CCC[C@@H]1C(=O)N1C[C@@H](N)C[C@H]1C(=O)N[C@@H](CC(=O)O)C(=O)N2` [Intermediate 18] (cyclo(AWHLGQLVWCT[dP][Pro(4S-NH2)]DC); disulfide 10-15), for which the Kd in experiment [1] (setting [3]) was less than 100 nM; in experiment [1] (SPR, read-out: IgG KD), less than 100 nM.

Turning to `C#CCCCC(=O)NCCOCCOCCOCCOCCNC(=O)CC[C@@H]1NC(=O)CNC(=O)[C@H](CC(C)C)NC(=O)[C@H](Cc2cnc[nH]2)NC(=O)[C@H](Cc2c[nH]c3ccccc23)NC(=O)[C@H](C)NC(=O)[C@@H](NC(=O)[C@@H](N)CC(=O)O)CSSC[C@@H](C(=O)N[C@H](C(N)=O)[C@@H](C)O)NC(=O)[C@H](Cc2c[nH]c3ccccc23)NC(=O)[C@H](C(C)C)NC(=O)[C@H](CC(C)C)NC1=O` [Intermediate 2], the dissociation constant (Kd) in experiment [1] (setting [3]) is less than 100 nM.

On to `CC(C)C[C@@H]1NC(=O)[C@H](Cc2cnc[nH]2)NC(=O)[C@H](Cc2c[nH]c3ccccc23)NC(=O)[C@H](C)NC(=O)[C@@H]2CSSC[C@H](NC(=O)[C@@H](Cc3c[nH]c4ccccc34)NC(=O)[C@H](C(C)C)NC(=O)[C@H](CC(C)C)NC(=O)[C@H](CCC(=O)O)NC(=O)CNC1=O)C(=O)N[C@@H]([C@@H](C)O)C(=O)N1CCC[C@@H]1C(=O)N1C[C@@H](N)C[C@H]1C(=O)N[C@@H](CC(=O)O)C(=O)N2` (stereo in doubt) [Intermediate 24], for which the Kd in experiment [1] (setting [3]) was less than 100 nM; in experiment [1] (SPR, read-out: IgG KD), less than 100 nM. On to `CC(C)C[C@@H]1NC(=O)[C@H](Cc2cnc[nH]2)NC(=O)[C@H](Cc2c[nH]c3ccccc23)NC(=O)[C@H](C)NC(=O)[C@@H]2CSSC[C@H](NC(=O)[C@H](Cc3c[nH]c4ccccc34)NC(=O)[C@H](C(C)C)NC(=O)[C@H](CC(C)C)NC(=O)[C@H](CCC(=O)O)NC(=O)CNC1=O)C(=O)N[C@@H]([C@@H](C)O)C(=O)N1CCC[C@@H]1C(=O)N1C[C@@H](N)C[C@H]1C(=O)N[C@@H](C)C(=O)N2` [Intermediate 12], for which the Kd is less than 100 nM in experiment [1] (setting [3]) and less than 100 nM in experiment [1] (SPR, read-out: IgG KD). For the compound `CC(C)C[C@@H]1NC(=O)[C@H](Cc2cnc[nH]2)NC(=O)[C@H](Cc2c[nH]c3ccccc23)NC(=O)[C@H](C)NC(=O)[C@@H]2CC/C=C/C[C@H](NC(=O)[C@H](Cc3c[nH]c4ccccc34)NC(=O)[C@H](C(C)C)NC(=O)[C@H](CC(C)C)NC(=O)[C@H](CCC(=O)O)NC(=O)CNC1=O)C(=O)N[C@@H]([C@@H](C)O)C(=O)N1CCC[C@@H]1C(=O)N1CCC[C@H]1C(=O)N[C@@H](CC(=O)O)C(=O)N2`, the Kd in experiment [1] (SPR, read-out: IgG KD) was less than 100 nM. Turning to `CC(C)C[C@@H]1NC(=O)[C@H](Cc2cnc[nH]2)NC(=O)[C@H](Cc2c[nH]c3ccccc23)NC(=O)[C@H](C)NC(=O)[C@@H]2CSSC[C@H](NC(=O)[C@H](Cc3c[nH]c4cc(Cl)ccc34)NC(=O)[C@H](C(C)C)NC(=O)[C@H](CC(C)C)NC(=O)[C@H](CCC(=O)O)NC(=O)CNC1=O)C(=O)N[C@@H]([C@@H](C)O)C(=O)N1CCC[C@@H]1C(=O)N1C[C@@H](N)C[C@H]1C(=O)N[C@@H](CC(=O)O)C(=O)N2` [Intermediate 19], the Kd in experiment [1] (setting [3]) is less than 100 nM; in experiment [1] (SPR, read-out: IgG KD), less than 100 nM. As for `CC(C)C[C@@H]1NC(=O)[C@H](Cc2cnc[nH]2)NC(=O)[C@H](Cc2c[nH]c3ccccc23)NC(=O)[C@H](CCO)NC(=O)[C@@H]2CSSC[C@H](NC(=O)[C@H](Cc3c[nH]c4ccccc34)NC(=O)[C@H](C(C)C)NC(=O)[C@H](CC(C)C)NC(=O)[C@H](CCC(=O)O)NC(=O)CNC1=O)C(=O)N[C@@H]([C@@H](C)O)C(=O)N1CCC[C@@H]1C(=O)N1C[C@@H](N)C[C@H]1C(=O)N[C@@H](CC(=O)O)C(=O)N2` [Intermediate 21] (cyclo(CT[dP][Pro(4S-NH2)]DC[hSer]WHLGELVW); disulfide 1-6), the Kd in experiment [1] (setting [3]) is less than 100 nM; in experiment [1] (SPR, read-out: IgG KD) it was less than 100 nM. Turning to `CC(C)C[C@@H]1NC(=O)[C@H](Cc2cnc[nH]2)NC(=O)[C@H](Cc2c[nH]c3ccccc23)NC(=O)[C@H](C)NC(=O)[C@@H]2CSSC[C@H](NC(=O)[C@H](Cc3c[nH]c4ccccc34)NC(=O)[C@H](C(C)C)NC(=O)[C@H](CC(C)C)NC(=O)[C@H](CCC(=O)N(C)C)NC(=O)CNC1=O)C(=O)N[C@@H]([C@@H](C)O)C(=O)N1CCC[C@@H]1C(=O)N1C[C@@H](N)C[C@H]1C(=O)N[C@@H](CC(N)=O)C(=O)N2` [Intermediate 27] (cyclo(AWHLGE(NMe2)LVWCT[dP][Pro(4S-NH2)]NC); disulfide 10-15), the Kd in experiment [1] (setting [3]) was less than 100 nM; in experiment [1] (SPR, read-out: IgG KD), less than 100 nM. On to `C#CCCCC(=O)NCCOCCOCCC(=O)N[C@H]1C[C@H]2C(=O)N[C@@H](CC(=O)O)C(=O)N[C@H]3CSSC[C@H](NC(=O)[C@H](Cc4c[nH]c5ccccc45)NC(=O)[C@H](C(C)C)NC(=O)[C@H](CC(C)C)NC(=O)[C@H](CCC(=O)O)NC(=O)CNC(=O)[C@H](CC(C)C)NC(=O)[C@H](Cc4cnc[nH]4)NC(=O)[C@H](Cc4c[nH]c5ccccc45)NC(=O)[C@H](C)NC3=O)C(=O)N[C@@H]([C@@H](C)O)C(=O)N3CCC[C@@H]3C(=O)N2C1` [Intermediate 6], for which the Kd in experiment [1] (setting [3]) was less than 100 nM. In the case of `C#CCCCC(=O)NCCOCCOCCOCCOCCC(=O)N[C@@H](CC(=O)O)C(=O)N[C@H]1CSSC[C@@H](C(=O)N[C@H](C(N)=O)[C@@H](C)O)NC(=O)[C@H](Cc2c[nH]c3ccccc23)NC(=O)[C@H](C(C)C)NC(=O)[C@H](CC(C)C)NC(=O)[C@H](CCC(=O)O)NC(=O)CNC(=O)[C@H](CC(C)C)NC(=O)[C@H](Cc2cnc[nH]2)NC(=O)[C@H](Cc2c[nH]c3ccccc23)NC(=O)[C@H](C)NC1=O` [Intermediate 1], the Kd was less than 100 nM in experiment [1] (setting [3]) and less than 100 nM in experiment [1] (SPR, read-out: IgG KD). For `[N-]=[N+]=NCCOCCOCCOCCOC[C@H]1OC[C@H](Nc2cncc(C(F)(F)F)n2)[C@@H](O)[C@H]1O` [A21, (2R,3R,4R,5S)-2-(13-azido-2,5,8,11-tetraoxatridecyl)-5-((6-(trifluoromethyl)pyrazin-2-yl)amino)tetrahydro-2H-pyran-3,4-diol], in experiment [2], the Kd is 100 to 500 nM.

In turn, `COc1cccc(-c2cn(C[C@H]3OC[C@H](Nc4nccc(C(F)(F)F)n4)[C@@H](O)[C@H]3O)nn2)c1` [A65, (2R,3R,4R,5S)-2-((4-(3-methoxyphenyl)-1H-1,2,3-triazol-1-yl)methyl)-5-((4-(trifluoromethyl)pyrimidin-2-yl)amino)tetrahydro-2H-pyran-3,4-diol] gave a Kd in experiment [2] of less than 1000 nM.
